Source: patent US7927785B2, “Methods for in vitro expansion of hematopoietic stem cells” (The Board of Trustees of the University of Illinois, priority 2002, dated 2011)

Key:
NOD/SCID mice [1] = test: Hematopoietic colonies cloned from NOD/SCID mouse marrow 7 weeks after human grafts; format: in vivo; settings: for Estimated Number of Human Colonies: % human cells multiplied by total number of colonies; for % Human Cells: pooled colonies stained for human CD45/CD33, grafts 7 weeks earlier
Method: After 7 weeks of passage in vivo of human grafts in NOD/SCID mice, marrow cells from mice were then plated in methylcellulose assays at 100,000 cells/plate as previously described. After 14 days of incubation the number of hematopoietic colonies were enumerated.
(§1) Mice were given 300cGy of total body gamma irradiation and human grafts were injected via the tail vein. Cytokines including SCF, IL-3 and GM-CSF at 5 ug/mouse were injected intraperitoneally on alternate days following injection of human grafts during the first week of transplant. Sulfamethoxazole (40 mg/mL) and Trimethoprim (8 mg/mL)(SMX/TMZ; Elkins-Sinn, Cherry Hill, N.J.) were added in the drinking water for 3 days post injection and then subsequently for 3 days beginning the second week of transplant. Mice were sacrificed after 7 weeks. Femurs and tibias were flushed with Hank's balanced salt solution (HBSS) (Biowhittiker) with 2% FBS (Hyclone) and 0.02% sodium azide and cell counts performed. Cells were preincubated with 1 mg/ml of human gamma globulin in staining to block human Fc receptors. Murine Fc receptors were blocked by a second incubation of the cells in 2.4G2 (an anti-mouse Fc receptor moAb). Marrow cells were analyzed by flow cytometry to detect human cell engraftment as previously described.^29 Briefly to quantitate the total number of human cells present an aliquot of cells was stained with anti-CD45-FITC(BD) and anti-CD71-FITC(BD). This aliquot was also stained with anti-CD19-PE(BD) and cyanine-5-succinimidyl-labeled anti-CD34 (BD). After 7 weeks, marrow cells were plated in methylcellulose as previously described. Colonies from these CFC were then pooled and stained with moAb against CD33 and CD45 (BD) to assess the presence of human cells.

[2] = system: adult human bone marrow CD34+ cells; test: Phenotypic analysis (FACS) of marrow CD34+ cells after ex vivo culture; format: cell-based; settings: 9 days of culture; single agent; % of total cells
Method: To promote cell division of isolated CD34^+ cells, a stroma-free suspension culture was established as previously described (Bazil et al., 1995). Tissue culture dishes (35 mm; Costar, Corning, N.Y.) were seeded with 1×10^5 CD34^+cells/well in 2.5 mL Iscove modified Dulbecco medium (IMDM) (Biowhittaker, Walkersville, Md.) containing 30% FBS and a cocktail of cytokines specifically thought to promote exit from G0/G1 in primitive HSC populations which consisted of 100 ng/mL recombinant stem cell factor (SCF), 100 ng/mL FLT-3 ligand, 100 ng/mL thrombopoetin (TPO) and 50 ng/mL of interleukin (IL)-3, (all from Amgen Inc., Thousand Oaks, Calif.).
Cells were maintained in the media and incubated at 37° C. in a 100%-humidified atmosphere containing 5% CO2 for 48 hours. After intial 16 hours of incubation cells were exposed to the demethylating agent, 5-aza2′deoxycitidine (5azaD) (Sigma Chemicals, St. Louis, Mo.) at a concentration of 10^−6M. After 48 hours, cells were washed by centrifugation and then equally distributed to new tissue culture dishes in 2.5 mL IMDM supplemented with 30% FBS containing cytokines known to promote terminal differentiation of HSC into multiple hematopoietic lineages. The cocktail of cytokines contained 100 ng/mL of SCF, 50 ng/ml of granulocyte colony-stimulating factor (G-CSF), 50 ng/mL of IL-3, 50 ng/ml of IL-6 and 5 units (U)/mL of recombinant erythropoietin (EPO) (Amgen Inc., Thousand Oaks, Calif.). Cells at this time point were exposed to Trichostatin (TSA) (Sigma Chemical., St. Louis, Mo.) at 5 ng/mL and the culture was continued for an additional 7 days. At the end of the culture period cells were counted for viability by the trypan blue exclusion method using an inverted microscope. 5-fluorouracil (5-FU) (Sigma Chemical., St. Louis, Mo.) was used at a concentration of 200 μg/ml and added at the 16 hour time point instead of 5azaD and the cultures carried on as described above with no addition of TSA.
The phenotypic characteristics of the CD34^+ cells were analyzed using FACS. After 9 days of culture, expanded marrow CD34^+ cells were analyzed for primitive HSC phenotype, previously defined, by using flow activated-cell sorter (FACS) (Becton Dickinson (BD) FACS Calibur, San Jose, Calif.). Cells were stained with anti-human CD34^+ moAb conjugated either to fluorescein isothiocyanate (FITC) or phycoerythrin (PE) and another moAb including anti-CD38, anti-CD117, anti-CD90. To determine the lineage positive cells a panel of moab all conjugated to FITC (anti-CD2, anti-CD14, anti-CD15, anti-CD19 and anti-GlyA) (all antibodies were purchased from BD) were utilized. All anaylsis were paired with the corresponding matched isotype control of the specific moAb utilized. All staining and washes were performed in DPBS (Biowhittaker, Walkersville Md.) and 0.5% BSA (Sigma, Chemicals Co., St. Louis, Mo.). Immediately prior to FACS anaylsis, […] propidium iodide (PI) (Sigma, Chemicals Co., St. Louis, Mo.) was added for the exclusion of nonviable cells for phenotypic analysis. Using Cell-Quest software (BD), at least 10,000 live cells were acquired for each analysis.

NOD/SCID mice [3] = test: Marrow repopulation assay of human cell grafts in NOD/SCID mice; format: in vivo; settings: cells after 9 days of culture with cytokines; 7 weeks
Method: A colony of immunodeficient nonobese diabetic/ltsz-scid/scid (NOD/SCID) mice were purchased from the Jackson Laboratories (Bar Harbor, Me.) and were maintained as previously described (Coneallt et al., Proc. Nat'l Acad. Sci. USA, 94:9836-41, 1997). All NOD/SCID mice were kept under sterile conditions in the microisolator cages and were provided with autoclaved food and acidified water.
as §1, with “Cells were preincubated with 1 mg/ml of human gamma globulin in staining to block human Fc receptors. Murine Fc receptors were blocked by a second incubation of the cells in 2.4G2 (an anti-mouse Fc receptor moAb).” left out, “This aliquot was also stained with anti-CD19-PE(BD) and cyanine-5-succinimidyl-labeled anti-CD34 (BD). After 7 weeks, marrow cells were plated in methylcellulose as previously described. Colonies from these CFC were then pooled and stained with moAb against CD33 and CD45 (BD) to assess the presence of human cells.” left out

[4] = system: adult human bone marrow CD34+ cells; test: Cell cycle analysis by FACS (SG2M %); format: cell-based; settings: for SG2M % 48 hours: 48 hours from the start of the experiment; for SG2M % 72 hours: 72 hours from the start of the experiment
Method: Table 4. TSA Increases the Number of Cycling Cells. Cell cycle analysis at 48 h and 72 h from the start of the experiment is shown. Cells were examined by FACS analysis for cell cycle. SG2M % indicates cells in active DNA synthesis and indicates cells that may be actively cycling. This increased cycling allows the incorporation of the hypomethylating agent 5azaD.

Row | SMILES | Estimated Number of Human Colonies (NOD/SCID mice [1]) | secondary hematopoietic colonies from marrow of grafted mice (NOD/SCID mice [1]; plated in semisolid media with human cytokines) | % Human Cells (NOD/SCID mice [1]) [%] | CD34+ CD90+ % [2] [%] | CD34+ CKit lo % [2] [%] | CD34+ Lin− % [2] [%] | CD34+CD38− % [2] [%] | CD34+CD133+ % [2] [%] | Total CD34+ % [2] [%] | marrow repopulating activity: engraftment and multilineage differentiation (NOD/SCID mice [3]) | SG2M % 48 hours [4] [%] | SG2M % 72 hours [4] [%]
1 | Nc1ncn([C@H]2C[C@H](O)[C@@H](CO)O2)c(=O)n1 [5azaD, 5-aza2′deoxycitidine] | 9 | formed significant numbers of secondary hematopoietic colonies | 12 | 7 | 19 | 30 | 20 | 12 | 30 | retained the ability to engraft NOD/SCID mice | 36.5 | 35.5
2 | CC(/C=C/C(=O)NO)=C\[C@@H](C)C(=O)c1ccc(N(C)C)cc1 [TSA, Trichostatin A] | 0 |  | 0 | 0.8 | 3 | 4 | 1.8 | 0.45 | 4 | no longer possessed such marrow repopulating activity | 36 | 41.6
